This is an account of results in patent US11352551B2, “Proppant coatings containing antimicrobial agents” (Agienic, Inc., priority 2012, dated 2022).

Each structure is given as a SMILES string.

For data set [1] the following is noted: room temperature; cited from earlier work.
Data set [2] relates to Desulfovibrio vulgaris (ATCC 29579). As to the kind of experiment: Activity against sulfate reducing bacteria (3-tube most probable number method). In kind it is cell-based. As to conditions: 10 ppm (copper or gluteraldehyde); one hour; start 2×10^7 mpn/ml; SRB2 media.

As to `[Cu][Br]` [CuBr, Copper(I) bromide], the Water solubility in data set [1] was 0.011 mg/mL.

As to `[Cl][Cu][Cl]` [CuCl2, copper (II) chloride], in data set [2], the “log10 reduction of D. vulgaris” value was “less than 3 log10”.

In the case of `[Cl-].[Cl-].[Zn+2]` [ZnCl2, zinc chloride], the Water solubility in data set [1] is 4300 mg/mL.

With `O=CCCCC=O` [gluteraldehyde], the “log10 reduction of D. vulgaris” value in data set [2] is recorded as “greater than 4.23 log10”.
